Test results: patent US11447505B1, “Pyrrolo[2,3-b]pyridine compounds and their use in the treatment of cancer” (priority 2017, dated 2022)

Legend:
[1] = molecular target: MRCKβ (Homo sapiens (Human), UniProt Q9Y5S2); assay: MRCKβ kinase assay (IMAP fluorescence polarization); format: biochemical; details: 1 μM ATP; read-out: MRCK-B Average Ki
Excerpt: MRCKα, MRCKβ, ROCK1 and ROCK2 Kinase Assays

[2] = molecular target: ROCK1 (Homo sapiens (Human), UniProt Q13464); details: read-out: ROCK1 Average Ki; 1 μM ATP
Method: MRCKα, MRCKβ, ROCK1 and ROCK2 assays were performed using an IMAP fluorescence polarization assay format (Molecular Devices Inc.). […] Typically, dose response analyses were performed over concentration ranges from 0.005-100 μM. […] After 30 min incubation to allow binding reagent to bind phosphorylated peptide, fluorescence polarization was measured on a Tecan Saphire^2 plate reader at excitation (470 nm) and emission (530 nm) wavelengths.

[3] = molecular target: ROCK2 (Homo sapiens (Human), UniProt O75116); assay: ROCK2 kinase assay (IMAP fluorescence polarization); format: biochemical; details: 1 μM ATP; read-out: ROCK2 Average Ki
Sequence of ROCK2 (O75116 whole entry): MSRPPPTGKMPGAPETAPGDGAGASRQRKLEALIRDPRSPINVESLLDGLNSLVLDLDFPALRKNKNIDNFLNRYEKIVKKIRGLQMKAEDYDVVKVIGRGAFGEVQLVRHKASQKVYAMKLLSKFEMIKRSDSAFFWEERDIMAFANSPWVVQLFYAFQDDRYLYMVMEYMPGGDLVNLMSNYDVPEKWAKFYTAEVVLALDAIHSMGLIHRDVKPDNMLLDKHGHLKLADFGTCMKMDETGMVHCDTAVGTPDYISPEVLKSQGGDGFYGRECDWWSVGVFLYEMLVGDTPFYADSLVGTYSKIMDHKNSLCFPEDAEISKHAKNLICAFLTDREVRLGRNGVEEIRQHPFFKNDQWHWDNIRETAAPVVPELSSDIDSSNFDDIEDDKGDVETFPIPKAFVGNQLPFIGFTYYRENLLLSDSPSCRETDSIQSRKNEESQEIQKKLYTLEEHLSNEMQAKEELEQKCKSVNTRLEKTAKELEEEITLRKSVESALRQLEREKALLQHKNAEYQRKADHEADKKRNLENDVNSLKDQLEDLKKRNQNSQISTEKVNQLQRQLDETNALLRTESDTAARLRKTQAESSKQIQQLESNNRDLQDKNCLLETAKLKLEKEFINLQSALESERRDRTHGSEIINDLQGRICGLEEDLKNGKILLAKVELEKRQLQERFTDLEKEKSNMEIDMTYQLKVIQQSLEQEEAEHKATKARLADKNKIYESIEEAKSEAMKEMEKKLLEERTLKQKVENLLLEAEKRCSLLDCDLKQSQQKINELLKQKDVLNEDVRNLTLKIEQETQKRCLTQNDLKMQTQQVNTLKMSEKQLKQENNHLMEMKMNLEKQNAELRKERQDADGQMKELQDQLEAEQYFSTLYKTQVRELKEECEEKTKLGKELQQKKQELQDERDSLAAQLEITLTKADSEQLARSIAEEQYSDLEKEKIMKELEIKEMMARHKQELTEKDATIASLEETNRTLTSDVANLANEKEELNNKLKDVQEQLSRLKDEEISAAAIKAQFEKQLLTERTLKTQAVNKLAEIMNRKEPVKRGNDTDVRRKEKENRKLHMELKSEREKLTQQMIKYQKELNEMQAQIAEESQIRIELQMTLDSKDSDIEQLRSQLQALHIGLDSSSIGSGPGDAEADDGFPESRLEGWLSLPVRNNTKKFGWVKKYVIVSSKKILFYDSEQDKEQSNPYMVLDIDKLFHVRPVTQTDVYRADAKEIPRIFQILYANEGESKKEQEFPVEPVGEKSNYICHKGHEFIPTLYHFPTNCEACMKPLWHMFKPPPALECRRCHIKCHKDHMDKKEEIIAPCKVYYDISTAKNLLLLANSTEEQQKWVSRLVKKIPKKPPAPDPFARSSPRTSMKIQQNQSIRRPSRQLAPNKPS
Method: MRCKα, MRCKβ, ROCK1 and ROCK2 assays were performed using an IMAP fluorescence polarization assay format (Molecular Devices Inc.). 8-12 nM of each kinase (Life Technologies) was incubated for 60 min at room temperature with 100 nM FAM-S6-ribosomal protein derived peptide (synthesized by Alta Biosciences, University of Birmingham UK) in the presence of 1 μM ATP and 0.5 mM MgCl2 in 20 mM Tris buffer (pH 7.4) containing 0.01% Tween-20 and 1 mM DTT (MRCKα and β); or 1 μM ATP, 10 mM MgCl2 in 20 mM Tris buffer (pH 7.5) containing 0.25 mM EGTA 0.01% Triton X-100 and 1 mM DTT (ROCK1 and ROCK2). Typically, dose response analyses were performed over concentration ranges from 0.005-100 μM. Reactions were stopped by adding 2 assay volumes of 0.25% (v/v) IMAP binding reagent in 1×IMAP binding buffer A (Molecular Devices). After 30 min incubation to allow binding reagent to bind phosphorylated peptide, fluorescence polarization was measured on a Tecan Saphire^2 plate reader at excitation (470 nm) and emission (530 nm) wavelengths.

Sequence of ROCK1 (Q13464 2-1354 limits assumed): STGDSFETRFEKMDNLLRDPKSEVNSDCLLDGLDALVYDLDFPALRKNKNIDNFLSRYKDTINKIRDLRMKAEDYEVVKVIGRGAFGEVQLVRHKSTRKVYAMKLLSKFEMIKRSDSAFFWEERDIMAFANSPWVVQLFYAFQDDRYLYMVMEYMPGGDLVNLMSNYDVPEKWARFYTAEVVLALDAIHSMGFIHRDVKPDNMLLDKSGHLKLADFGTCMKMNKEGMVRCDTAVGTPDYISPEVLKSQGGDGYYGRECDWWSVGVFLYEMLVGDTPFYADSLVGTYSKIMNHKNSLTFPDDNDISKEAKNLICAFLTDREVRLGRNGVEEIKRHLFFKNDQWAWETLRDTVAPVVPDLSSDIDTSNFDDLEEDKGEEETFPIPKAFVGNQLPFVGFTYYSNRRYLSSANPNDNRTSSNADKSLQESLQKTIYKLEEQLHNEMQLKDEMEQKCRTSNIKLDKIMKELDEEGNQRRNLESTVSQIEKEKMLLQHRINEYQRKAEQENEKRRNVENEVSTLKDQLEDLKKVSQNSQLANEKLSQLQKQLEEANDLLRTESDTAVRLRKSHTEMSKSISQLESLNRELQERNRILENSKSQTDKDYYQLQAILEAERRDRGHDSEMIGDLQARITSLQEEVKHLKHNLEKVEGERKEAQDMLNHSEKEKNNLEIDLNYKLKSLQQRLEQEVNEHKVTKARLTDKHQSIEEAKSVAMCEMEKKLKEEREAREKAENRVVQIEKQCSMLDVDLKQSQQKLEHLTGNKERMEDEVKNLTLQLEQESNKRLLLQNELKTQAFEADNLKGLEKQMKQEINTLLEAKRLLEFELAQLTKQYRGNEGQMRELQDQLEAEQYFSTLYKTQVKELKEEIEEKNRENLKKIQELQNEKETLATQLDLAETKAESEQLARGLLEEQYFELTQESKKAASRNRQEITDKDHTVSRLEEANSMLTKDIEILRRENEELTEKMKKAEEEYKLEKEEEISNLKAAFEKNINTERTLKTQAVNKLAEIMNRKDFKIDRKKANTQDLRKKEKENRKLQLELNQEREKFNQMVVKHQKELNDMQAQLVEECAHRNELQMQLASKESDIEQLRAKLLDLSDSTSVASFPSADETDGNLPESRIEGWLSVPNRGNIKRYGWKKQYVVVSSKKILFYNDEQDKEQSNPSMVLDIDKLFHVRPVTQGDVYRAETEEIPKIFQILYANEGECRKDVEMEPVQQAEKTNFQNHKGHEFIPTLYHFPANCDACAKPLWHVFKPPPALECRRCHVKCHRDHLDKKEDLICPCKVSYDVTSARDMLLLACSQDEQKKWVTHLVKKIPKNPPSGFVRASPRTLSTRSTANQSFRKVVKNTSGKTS

| Molecule | Ki [1] | Ki [2] | Ki [3] |
| --- | --- | --- | --- |
| 4-[4-(1-piperidyl)-1H-pyrrolo[2,3-b]pyridin-3-yl]pyridin-2-amine [Example E9] | 0.886 nM | 1.5 nM | 1.25 nM |
| 4-morpholino-1H-pyrrolo[2,3-b]pyridine-3-carbonitrile [Example E33] | 87.1 nM | 196 nM | 127 nM |
| CN[C@H]1CCCN(c2ccnc3[nH]cc(-c4cncnc4)c23)[C@H]1C (relative stereo) [Example E179, cis-N,2-dimethyl-1-(3-pyrimidin-5-yl-1H-pyrrolo[2,3-b]pyridin-4-yl)piperidin-3-amine] | 128 nM | 1290 nM | 1090 nM |
| CN(C1CC1)[C@H]1CCCN(c2ccnc3[nH]cc(-c4cncnc4)c23)C1 (stereo in doubt) [Example E80] | 8.3 nM | 499 nM | 228 nM |
| Cc1cnc2[nH]cc(-c3cncnc3)c2c1N1CCCCC1 [Example E1, 5-methyl-4-(1-piperidyl)-3-pyrimidin-5-yl-1H-pyrrolo[2,3-b]pyridine] | 64.6 nM | 15000 nM | 6500 nM |
| Nc1cccc(-c2c[nH]c3nccc(N4CCCCC4)c23)n1 [Example E3, 6-[4-(1-piperidyl)-1H-pyrrolo[2,3-b]pyridin-3-yl]pyridin-2-amine] | 39.9 nM | 28.6 nM | 13.8 nM |
| c1cc(-c2c[nH]c3nccc(N4CCCCC4)c23)ncn1 [Example E4, 4-(1-piperidyl)-3-pyrimidin-4-yl-1H-pyrrolo[2,3-b]pyridine] | 15.5 nM | 28.3 nM | 19.7 nM |
| CNc1cc(-c2c[nH]c3nccc(N4CCCCC4)c23)ccn1 [Example E5, N-methyl-4-[4-(1-piperidyl)-1H-pyrrolo[2,3-b]pyridin-3-yl]pyridin-2-amine] | 3.02 nM | 40.8 nM | 22.5 nM |
| N#Cc1cc(-c2c[nH]c3nccc(N4CCCCC4)c23)cnc1N [Example E7, 2-amino-5-[4-(1-piperidyl)-1H-pyrrolo[2,3-b]pyridin-3-yl]pyridine-3-carbonitrile] | 357 nM | 501 nM | 245 nM |
| N#Cc1cncc(-c2c[nH]c3nccc(N4CCCCC4)c23)c1 [Example E8, 5-[4-(1-piperidyl)-1H-pyrrolo[2,3-b]pyridin-3-yl]pyridine-3-carbonitrile] | 541 nM | 10000 nM | 3270 nM |
| Nc1ccc(-c2c[nH]c3nccc(N4CCCCC4)c23)cn1 [Example E10, 5-[4-(1-piperidyl)-1H-pyrrolo[2,3-b]pyridin-3-yl]pyridin-2-amine] | 51.8 nM | 74.9 nM | 45.7 nM |
| Fc1cncc(-c2c[nH]c3nccc(N4CCCCC4)c23)c1 [Example E11, 3-(5-fluoro-3-pyridyl)-4-(1-piperidyl)-1H-pyrrolo[2,3-b]pyridine] | 42.3 nM | 755 nM | 374 nM |
| Clc1cncc(-c2c[nH]c3nccc(N4CCCCC4)c23)c1 [Example E12, 3-(5-chloro-3-pyridyl)-4-(1-piperidyl)-1H-pyrrolo[2,3-b]pyridine] | 366 nM | 2150 nM | 574 nM |
| CNC(=O)c1cncc(-c2c[nH]c3nccc(N4CCCCC4)c23)c1 [Example E13, N-methyl-5-[4-(1-piperidyl)-1H-pyrrolo[2,3-b]pyridin-3-yl]pyridine-3-carboxamide] | 378 nM | 10000 nM | 1740 nM |
| c1cc(-c2c[nH]c3nccc(N4CCCCC4)c23)cnn1 [Example E14, 4-(1-piperidyl)-3-pyridazin-4-yl-1H-pyrrolo[2,3-b]pyridine] | 9.4 nM | 9 nM | 6.5 nM |
| c1cnnc(-c2c[nH]c3nccc(N4CCCCC4)c23)c1 [Example E15, 4-(1-piperidyl)-3-pyridazin-3-yl-1H-pyrrolo[2,3-b]pyridine] | 56.5 nM | 482 nM | 362 nM |
| c1cnc(-c2c[nH]c3nccc(N4CCCCC4)c23)cn1 [Example E16, 4-(1-piperidyl)-3-pyrazin-2-yl-1H-pyrrolo[2,3-b]pyridine] | 61.8 nM | 504 nM | 159 nM |
| c1ccc2c(-c3c[nH]c4nccc(N5CCCCC5)c34)n[nH]c2c1 [Example E17, 3-(1H-indazol-3-yl)-4-(1-piperidyl)-1H-pyrrolo[2,3-b]pyridine] | 696 nM | 10000 nM | 10000 nM |
| Cn1nccc1-c1c[nH]c2nccc(N3CCCCC3)c12 [Example E18, 3-(2-methylpyrazol-3-yl)-4-(1-piperidyl)-1H-pyrrolo[2,3-b]pyridine] | 818 nM | 10000 nM | 2480 nM |
| c1cc(N2CCCCC2)c2c(-c3ccc4[nH]ncc4c3)c[nH]c2n1 [Example E19, 3-(1H-indazol-5-yl)-4-(1-piperidyl)-1H-pyrrolo[2,3-b]pyridine] | 213 nM | 144 nM | 115 nM |

| Molecule | Ki [1] | Ki [2] | Ki [3] |
| --- | --- | --- | --- |
| CCn1cc(-c2c[nH]c3nccc(N4CCCCC4)c23)cn1 [Example E21, 3-(1-ethylpyrazol-4-yl)-4-(1-piperidyl)-1H-pyrrolo[2,3-b]pyridine] | 188 nM | 74.9 nM | 67.9 nM |
| Cn1ccc(-c2c[nH]c3nccc(N4CCCCC4)c23)n1 [Example E22, 3-(1-methylpyrazol-3-yl)-4-(1-piperidyl)-1H-pyrrolo[2,3-b]pyridine] | 656 nM | 10000 nM | 3220 nM |
| c1ccc(-c2c[nH]c3nccc(N4CCCCC4)c23)nc1 [Example E23, 4-(1-piperidyl)-3-(2-pyridyl)-1H-pyrrolo[2,3-b]pyridine] | 134 nM | 1690 nM | 699 nM |
| Cn1cc(-c2c[nH]c3nccc(N4CCCCC4)c23)cn1 [Example E24, 3-(1-methylpyrazol-4-yl)-4-(1-piperidyl)-1H-pyrrolo[2,3-b]pyridine] | 37.6 nM | 43.5 nM | 20.8 nM |
| c1ccc(-c2c[nH]c3nccc(N4CCC4)c23)nc1 [Example E25, 4-(azetidin-1-yl)-3-(2-pyridyl)-1H-pyrrolo[2,3-b]pyridine] | 178 nM | 10000 nM | 1500 nM |
| c1cncc(-c2c[nH]c3nccc(N4CCC4)c23)c1 [Example E26, 4-(azetidin-1-yl)-3-(3-pyridyl)-1H-pyrrolo[2,3-b]pyridine] | 57.6 nM | 545 nM | 263 nM |
| c1cc(N2CCC2)c2c(-c3cn[nH]c3)c[nH]c2n1 [Example E27, 4-(azetidin-1-yl)-3-(1H-pyrazol-4-yl)-1H-pyrrolo[2,3-b]pyridine] | 130 nM | 713 nM | 381 nM |
| c1cc(N2CCC2)c2c(-c3cc[nH]n3)c[nH]c2n1 [Example E28, 4-(azetidin-1-yl)-3-(1H-pyrazol-3-yl)-1H-pyrrolo[2,3-b]pyridine] | 29.4 nM | 14.4 nM | 9.8 nM |
| CN1CCN(c2ccnc3[nH]cc(C#N)c23)CC1 [Example E32, 4-(4-methylpiperazin-1-yl)-1H-pyrrolo[2,3-b]pyridine-3-carbonitrile] | 147 nM | 237 nM | 164 nM |
| N#Cc1c[nH]c2nccc(N3CCNCC3)c12 [Example E34, 4-piperazin-1-yl-1H-pyrrolo[2,3-b]pyridine-3-carbonitrile] | 52.8 nM | 43.6 nM | 23.8 nM |
| CN[C@H]1CCCN(c2ccnc3[nH]cc(-c4ncccc4F)c23)C1 [Example E48, (3S)-1-[3-(3-fluoro-2-pyridyl)-1H-pyrrolo[2,3-b]pyridin-4-yl]-N-methyl-piperidin-3-amine] | 1.73 nM | 3530 nM | 756 nM |
| CN[C@H]1CCCN(c2ccnc3[nH]cc(-c4ccccn4)c23)C1 [Example E49, (3S)-N-methyl-1-[3-(2-pyridyl)-1H-pyrrolo[2,3-b]pyridin-4-yl]piperidin-3-amine] | 0.506 nM | 50800 nM | 272 nM |
| CN[C@H]1CCCN(c2ccnc3[nH]cc(-c4cncc(F)c4)c23)C1 [Example E50, (3S)-1-[3-(5-fluoro-3-pyridyl)-1H-pyrrolo[2,3-b]pyridin-4-yl]-N-methyl-piperidin-3-amine] | 0.729 nM | 2050 nM | 578 nM |
| CN[C@H]1CCCN(c2ccnc3[nH]cc(-c4ccc(F)cn4)c23)C1 [Example E51, (3S)-1-[3-(5-fluoro-2-pyridyl)-1H-pyrrolo[2,3-b]pyridin-4-yl]-N-methyl-piperidin-3-amine] | 7.41 nM | 8930 nM | 2190 nM |
| CN[C@H]1CCCN(c2ccnc3[nH]cc(-c4cccnc4)c23)C1 [Example E53, (3S)-N-methyl-1-[3-(3-pyridyl)-1H-pyrrolo[2,3-b]pyridin-4-yl]piperidin-3-amine] | 1.27 nM | 50500 nM | 335 nM |
| OCCN[C@H]1CCCN(c2ccnc3[nH]cc(-c4cncnc4)c23)C1 [Example E56, 2-[[(3S)-1-(3-pyrimidin-5-yl-1H-pyrrolo[2,3-b]pyridin-4-yl)-3-piperidyl]amino]ethanol] | 2.23 nM | 1390 nM | 573 nM |
| N[C@H]1CCN(c2ccnc3[nH]cc(-c4cncnc4)c23)C1 [Example E58, (3S)-1-(3-pyrimidin-5-yl-1H-pyrrolo[2,3-b]pyridin-4-yl)pyrrolidin-3-amine] | 3.48 nM | 158 nM | 85.8 nM |
| c1cc(-c2c[nH]c3nccc(O[C@@H]4CCCNC4)c23)ncn1 [Example E213, 3-pyrimidin-4-yl-4-[[(3R)-3-piperidyl]oxy]-1H-pyrrolo[2,3-b]pyridine] | 0.144 nM | 3.84 nM |  |
| N-[(3S)-1-(3-pyridazin-4-yl-1H-pyrrolo[2,3-b]pyridin-4-yl)-3-piperidyl]acetamide [Example E205] | 4.43 nM | 113 nM |  |
